This is an account of results in PubChem BioAssay (NCI).

Among the test systems are TK-10 renal; SW-620 colon; NCI-H23 lung; HCT-116 colon; UACC-257 melanoma; SK-MEL-2 melanoma; K-562 leukemia; SK-MEL-28 melanoma; MDA-N; SF-539 CNS.
Holding throughout (assay): DTP human tumour cell line panel, 48 h

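Where inhibition never reached the appropriate level, the endpoint shown equals the highest concentration tested. Otherwise, values were interpolated linearly from a five-concentration, 48-hour dose response in 96-well plates. At the GI50, growth is halved. At the TGI there is no net growth.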 A value given as a limit tells only on which side of the number the result lay.

In general, TGI refers to the concentration giving total growth inhibition. Lower therefore signals greater sensitivity of the cells. For `COc1cc(C)c(S(=O)(=O)N(CCCN)OCCCN)c(C)c1C`, the TGI in the assay with TK-10 renal is greater than 100 µM; in the assay with SW-620 colon, greater than 100 µM; in the assay on NCI-H23 lung, greater than 100 µM; in the assay on HCT-116 colon, greater than 100 µM; in the assay on UACC-257 melanoma, 62.3 µM; with SK-MEL-2 melanoma, 51.5 µM. For the same compound, the TGI in the assay on K-562 leukemia was 31.7 µM; in the assay on SK-MEL-28 melanoma, greater than 100 µM; in the assay with MDA-N it was greater than 100 µM.

As for `Cc1nc2ccccc2nc1N1CCCC1`, the TGI in the assay on TK-10 renal, in the assay with SW-620 colon, in the assay on NCI-H23 lung, in the assay on HCT-116 colon, with UACC-257 melanoma and with SK-MEL-2 melanoma was greater than 100 µM each time. Further, the total growth inhibition concentration (TGI) with K-562 leukemia, with SK-MEL-28 melanoma and in the assay with MDA-N was greater than 100 µM throughout.

For the compound `Cc1cc(N)c2cc(NC(=O)CCCCCCCCC(=O)Nc3ccc4nc(C)cc(N)c4c3)ccc2n1`, the TGI in the assay with TK-10 renal is greater than 100 µM; in the assay with SW-620 colon, greater than 100 µM; in the assay with NCI-H23 lung, greater than 100 µM; in the assay on HCT-116 colon it was greater than 79 µM; in the assay on UACC-257 melanoma, 96.9 µM; in the assay on SK-MEL-2 melanoma it was greater than 100 µM. The figures for the TGI with K-562 leukemia, with SK-MEL-28 melanoma and in the assay with SF-539 CNS were greater than 100 µM, 97 µM and 26.5 µM, respectively.

As a reminder, the GI50 is the concentration giving 50% growth inhibition. As for H-KIFKKFKTIIKKVWRIFGRF-NH2, the GI50 is 2.44 µM with NCI-H23 lung; 3.22 µM in the assay with HCT-116 colon; 2.85 µM with UACC-257 melanoma; 2.63 µM with SK-MEL-2 melanoma; 2.82 µM in the assay with K-562 leukemia; 2.21 µM with SK-MEL-28 melanoma. For the same compound, the TGI in the assay with NCI-H23 lung was 7.51 µM; in the assay on HCT-116 colon, greater than 100 µM; in the assay on UACC-257 melanoma, 9.58 µM; in the assay with SK-MEL-2 melanoma it was 6.23 µM; with K-562 leukemia it was greater than 100 µM; in the assay on SK-MEL-28 melanoma it was 5.02 µM.

In the case of `CCOC(=O)/C=C/C(Br)=C(Br)/C=C/C(=O)OCC`, the TGI in the assay on TK-10 renal was 28.1 µM; in the assay with SW-620 colon, 5.31 µM; in the assay on NCI-H23 lung, 30 µM; in the assay with HCT-116 colon, 17 µM; in the assay on UACC-257 melanoma, 43.5 µM; in the assay with SK-MEL-2 melanoma, 49.3 µM. The TGI in the assay on K-562 leukemia amounted to 10.9 µM; with SK-MEL-28 melanoma, 33.4 µM; with MDA-N, 27.3 µM.

Take `C/C(=N/NC(=O)c1ccccc1Nc1ccccc1C(=O)N/N=C(\C)c1ccc(C)cc1)c1ccc(C)cc1`: the TGI in the assay with TK-10 renal, with SW-620 colon, in the assay with NCI-H23 lung, with HCT-116 colon, in the assay with UACC-257 melanoma and with SK-MEL-2 melanoma was greater than 100 µM in each case. Further, the TGI in the assay on K-562 leukemia, with SK-MEL-28 melanoma and with MDA-N was greater than 100 µM in each case.

Take `O=C(O)CSc1nnc(COc2ccccc2)n1-c1ccccc1`: the TGI in the assay on TK-10 renal, in the assay on NCI-H23 lung, with HCT-116 colon, with UACC-257 melanoma, with SK-MEL-2 melanoma and with SK-MEL-28 melanoma was greater than 100 µM in each case. Moreover, in the assay on SF-539 CNS, the TGI was greater than 100 µM.

Turning to `Cc1cccc(-c2cc(=O)c3cc(C)cnc3[nH]2)c1`, the TGI in the assay on TK-10 renal was greater than 100 µM; in the assay on NCI-H23 lung, greater than 35.9 µM; in the assay on HCT-116 colon it was 11.4 µM; with UACC-257 melanoma it was greater than 100 µM; in the assay on SK-MEL-2 melanoma it was greater than 100 µM; with K-562 leukemia, greater than 33.3 µM. Moreover, the concentration for total growth inhibition (TGI) in the assay with SK-MEL-28 melanoma was greater than 100 µM; in the assay with SF-539 CNS, 2.62 µM.

Consider `CN(C)CC(C)(C)C(=O)/C=C/c1ccccc1`, for which the TGI stood at 32.1 µM in the assay with TK-10 renal; 31.1 µM in the assay with SW-620 colon; 45.5 µM in the assay on NCI-H23 lung; 27.4 µM in the assay on HCT-116 colon; 27.2 µM with UACC-257 melanoma; 33.7 µM in the assay on K-562 leukemia. The results for the TGI in the assay on SK-MEL-28 melanoma and in the assay with SF-539 CNS were 31 µM and 32.3 µM, respectively.

For `CC1=NNC(N)=N/C1=C\C(Sc1ccc(Cl)cc1)c1ccc(Cl)cc1Cl` (stereo not drawn), the TGI in the assay with TK-10 renal was 45.9 µM; in the assay with SW-620 colon, 59.9 µM; in the assay on NCI-H23 lung, 29.4 µM; in the assay with HCT-116 colon, greater than 65 µM; in the assay with UACC-257 melanoma, 39.9 µM; with SK-MEL-2 melanoma it was 38 µM. The concentration for total growth inhibition (TGI) with K-562 leukemia is 56.3 µM; with SK-MEL-28 melanoma it was 55.7 µM; in the assay with MDA-N, greater than 71.5 µM.

On to `CCOC(=O)CCN1C(=O)c2c(NC(=O)C(=O)O)cccc2S1(=O)=O`, for which the TGI in the assay with TK-10 renal, in the assay on SW-620 colon, in the assay on NCI-H23 lung, in the assay with HCT-116 colon, in the assay on UACC-257 melanoma and with SK-MEL-2 melanoma was greater than 100 µM in each case. The TGI in the assay with K-562 leukemia, in the assay on SK-MEL-28 melanoma and in the assay with MDA-N was greater than 100 µM throughout.

`CCC(C)Cn1c(C)nc2c1C(=O)c1ccccc1C2=O` (stereo not drawn): the TGI with TK-10 renal was greater than 100 µM; in the assay on SW-620 colon, greater than 100 µM; in the assay with NCI-H23 lung, 48.4 µM; in the assay with UACC-257 melanoma, 62.3 µM; with SK-MEL-2 melanoma, 76.5 µM; in the assay on K-562 leukemia, greater than 100 µM. Besides, the results for the total growth inhibition concentration (TGI) in the assay on SK-MEL-28 melanoma and with SF-539 CNS were greater than 100 µM and 59.5 µM, respectively.

For `O=C(Nc1ccccc1C(=O)O)C(=Cc1ccccc1O)NC(=O)c1ccccc1`, the TGI in the assay with SW-620 colon, in the assay with NCI-H23 lung, with HCT-116 colon, in the assay on UACC-257 melanoma, in the assay with SK-MEL-2 melanoma and with K-562 leukemia was greater than 100 µM in each case. For the same compound, the TGI with SK-MEL-28 melanoma and in the assay on SF-539 CNS was greater than 100 µM each time.

On to `COc1ccc(Nc2ccnc3cc(Cl)ccc23)cc1CN(CCCl)CCCl`, for which the GI50 in the assay with TK-10 renal is 2.02 µM; with SW-620 colon, 1.59 µM; with NCI-H23 lung it was 1.04 µM; in the assay on HCT-116 colon it was 1.14 µM; in the assay on UACC-257 melanoma it was 1.98 µM; in the assay on K-562 leukemia it was 1.53 µM. Also, in the assay on SK-MEL-28 melanoma, the GI50 was 3.59 µM. Moreover, the TGI in the assay on TK-10 renal was greater than 20.7 µM; with SW-620 colon, 7.38 µM; with NCI-H23 lung it was 3.26 µM; in the assay on HCT-116 colon it was 3.84 µM; in the assay on UACC-257 melanoma, 5.96 µM; in the assay with K-562 leukemia, greater than 22.7 µM. Further, in the assay with SK-MEL-28 melanoma, the TGI was 14.9 µM.
